Experiments:
[1] = Elution of DAA-I from stents coated with increasing amounts of TEOS; assay type: physicochemical; conditions: 0.1-0.5M TEOS with constant DAA-I 1.25 mg/mL; effect of increasing TEOS to drug molar ratio; 9 mm stents; FIGS. 5A-5B
Description: To explore the effects of increasing the amount of TEOS on the rate of elution of DAA-I, increasing amounts, from 0.1-0.5M of TEOS were added to a constant amount of DAA-I (1.25 mg/mL) according to the methods and protocols described above. The stents (9 mm, n=4) were sprayed with each of the solutions as described above, weighed, and the amounts DAA-I eluted over a 24 hour period were compared.

[2] = pH 5
Description: Referring to FIG. 4, elution of DAA-I from the TEOS coated stents was measured by analyzing the amount of DAA-I found in 0.1% solutol in ammonium acetate buffer, pH 5.0, as a function of time, when the stents were incubated in this medium at 37° C. The amount of DAA-I was determined by integrating the DAA-I peak in high performance liquid chromatography (HPLC) profiles using a Altima C-8 column (Altech, Chicago Ill.) and comparison to standard curves.

rate of DAA-I elution [2]: slow the rate of DAA-I elution
Substance: des-aspartate angiotensin I [DAA-I]
rate of release of the drug into aqueous solution [1]: significantly delayed the rate of release

— patent US8097269B2, “Bioactive material delivery systems comprising sol-gel compositions” (Celonova Biosciences, Inc., priority 2004, dated 2012)
